Results on one compound are retold here after doi:10.1101/2021.04.08.439011v1 (biorxiv, 2021).

The target in assay [1] is RSK3(Kin.Dom.1-N-terminal) (Homo sapiens, UniProt Q15349). The following applies: 0.1 µM; binder.
In assay [2] the target is TYK2(JH1domain-catalytic) (Homo sapiens, UniProt P29597). As to conditions: 0.1 µM; binder.
The target of assay [3] is RSK1(Kin.Dom.1-N-terminal) (Homo sapiens, UniProt Q15418). The following applies: 0.1 µM; binder.
For assay [4], the target named is RIOK3 (Homo sapiens, UniProt O14730). As to conditions: 0.1 µM; binder.
Sequence of RIOK3 (O14730 whole entry): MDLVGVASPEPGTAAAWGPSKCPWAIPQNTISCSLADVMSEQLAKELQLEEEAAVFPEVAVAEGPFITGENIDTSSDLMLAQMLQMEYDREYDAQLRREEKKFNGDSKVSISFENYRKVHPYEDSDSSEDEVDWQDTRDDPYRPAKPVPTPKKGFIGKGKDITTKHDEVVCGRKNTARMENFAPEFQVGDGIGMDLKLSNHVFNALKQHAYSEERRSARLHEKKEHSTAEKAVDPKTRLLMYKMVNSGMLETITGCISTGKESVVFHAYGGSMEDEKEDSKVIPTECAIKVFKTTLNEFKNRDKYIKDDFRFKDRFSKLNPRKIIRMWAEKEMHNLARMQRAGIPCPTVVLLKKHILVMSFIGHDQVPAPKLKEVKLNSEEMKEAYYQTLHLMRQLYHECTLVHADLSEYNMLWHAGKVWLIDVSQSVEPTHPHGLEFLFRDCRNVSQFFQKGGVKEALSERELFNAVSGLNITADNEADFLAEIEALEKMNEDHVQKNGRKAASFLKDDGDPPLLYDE
For assay [5], the target named is RSK2(Kin.Dom.2-C-terminal) (Homo sapiens, UniProt P51812). As to conditions: 0.1 µM; binder.
Sequence of RSK2(Kin.Dom.2-C-terminal) (P51812 whole entry): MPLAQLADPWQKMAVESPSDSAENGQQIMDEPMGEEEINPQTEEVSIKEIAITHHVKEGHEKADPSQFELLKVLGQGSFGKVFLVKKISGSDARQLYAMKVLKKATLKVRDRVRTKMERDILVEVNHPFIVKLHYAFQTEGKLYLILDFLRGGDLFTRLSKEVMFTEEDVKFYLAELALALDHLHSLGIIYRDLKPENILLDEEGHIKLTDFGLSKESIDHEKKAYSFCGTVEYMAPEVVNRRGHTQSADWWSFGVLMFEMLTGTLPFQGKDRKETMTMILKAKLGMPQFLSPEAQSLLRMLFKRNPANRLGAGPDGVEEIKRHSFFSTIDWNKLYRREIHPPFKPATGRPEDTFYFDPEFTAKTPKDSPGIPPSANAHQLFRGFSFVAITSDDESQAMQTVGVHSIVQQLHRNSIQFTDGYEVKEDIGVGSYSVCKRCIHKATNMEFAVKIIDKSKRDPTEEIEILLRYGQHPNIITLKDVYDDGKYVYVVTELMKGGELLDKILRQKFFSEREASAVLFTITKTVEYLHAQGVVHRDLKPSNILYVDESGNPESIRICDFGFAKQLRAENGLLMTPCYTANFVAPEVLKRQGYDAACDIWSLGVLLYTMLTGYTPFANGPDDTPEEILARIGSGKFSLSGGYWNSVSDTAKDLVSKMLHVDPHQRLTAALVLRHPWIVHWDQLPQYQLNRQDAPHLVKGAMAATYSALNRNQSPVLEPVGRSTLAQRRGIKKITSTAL
The target of assay [6] is ABL1(Q252H) (Homo sapiens, UniProt P00519, Q252H). As to conditions: 1 µM, binder.
Assay [7] deals with ADCK4 (Homo sapiens, UniProt Q96D53). The following applies: 1 µM; binder.
Assay [8] addresses AKT1 (Homo sapiens, UniProt P31749). As to conditions: 1 µM; binder.
The target of assay [9] is AURKA (Homo sapiens, UniProt O14965). As to conditions: 1 µM; binder.
Sequence of AURKA (O14965 whole entry): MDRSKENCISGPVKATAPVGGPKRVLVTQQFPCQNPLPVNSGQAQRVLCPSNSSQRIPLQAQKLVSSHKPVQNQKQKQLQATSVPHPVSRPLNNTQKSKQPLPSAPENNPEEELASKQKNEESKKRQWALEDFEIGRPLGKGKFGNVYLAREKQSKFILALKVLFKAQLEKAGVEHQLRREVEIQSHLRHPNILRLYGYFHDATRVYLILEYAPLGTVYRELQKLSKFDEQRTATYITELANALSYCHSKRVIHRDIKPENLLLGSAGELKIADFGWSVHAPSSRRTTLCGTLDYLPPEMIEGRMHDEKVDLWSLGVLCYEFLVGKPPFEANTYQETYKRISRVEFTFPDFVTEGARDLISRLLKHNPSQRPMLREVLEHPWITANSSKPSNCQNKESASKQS
Assay [10] addresses BTK (Homo sapiens, UniProt Q06187). As to conditions: 1 µM; binder.
Assay [11] addresses CDC2L5 (Homo sapiens, UniProt Q14004). The following applies: 1 µM; binder.
Assay [12] addresses CDK5 (Homo sapiens, UniProt Q00535). The following applies: 1 µM; binder.
Assay [13] concerns the target CHEK1 (Homo sapiens, UniProt O14757). The following applies: 1 µM; binder.
The target of assay [14] is T1, FLT3 (Homo sapiens, UniProt P36888).
T1 sequence (P36888 1-993): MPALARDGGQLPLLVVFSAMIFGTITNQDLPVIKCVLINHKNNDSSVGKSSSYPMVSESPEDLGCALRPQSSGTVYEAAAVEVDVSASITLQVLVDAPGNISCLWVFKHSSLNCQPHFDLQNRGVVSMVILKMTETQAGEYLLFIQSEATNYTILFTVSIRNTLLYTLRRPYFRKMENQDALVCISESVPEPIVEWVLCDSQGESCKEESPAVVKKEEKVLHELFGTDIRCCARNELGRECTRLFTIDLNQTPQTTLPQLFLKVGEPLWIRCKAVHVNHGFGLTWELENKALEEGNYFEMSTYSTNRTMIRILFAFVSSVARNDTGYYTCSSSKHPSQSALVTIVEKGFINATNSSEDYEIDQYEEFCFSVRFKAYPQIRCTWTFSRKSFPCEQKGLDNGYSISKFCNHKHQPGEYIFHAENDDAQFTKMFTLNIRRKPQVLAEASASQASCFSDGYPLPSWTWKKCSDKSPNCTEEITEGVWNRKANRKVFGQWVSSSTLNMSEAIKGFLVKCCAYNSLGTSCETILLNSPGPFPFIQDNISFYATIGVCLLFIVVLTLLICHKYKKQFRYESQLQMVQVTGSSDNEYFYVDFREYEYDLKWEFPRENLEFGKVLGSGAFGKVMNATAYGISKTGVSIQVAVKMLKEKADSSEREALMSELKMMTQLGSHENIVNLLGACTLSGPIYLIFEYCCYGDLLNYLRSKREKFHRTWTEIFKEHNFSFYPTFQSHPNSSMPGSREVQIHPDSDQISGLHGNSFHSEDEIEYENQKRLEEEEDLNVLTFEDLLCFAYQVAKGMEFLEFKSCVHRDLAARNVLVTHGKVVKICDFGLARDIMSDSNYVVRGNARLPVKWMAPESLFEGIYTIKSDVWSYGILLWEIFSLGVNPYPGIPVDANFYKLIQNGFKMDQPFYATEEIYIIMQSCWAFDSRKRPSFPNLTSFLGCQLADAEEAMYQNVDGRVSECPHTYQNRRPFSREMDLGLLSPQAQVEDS
As to conditions: 1 µM; binder.

The target of assay [15] is FLT3(ITD,D835V) (Homo sapiens, UniProt P36888, D835V/ITD). The following applies: 1 µM; binder.
The target in assay [16] is KIT (Homo sapiens, UniProt P10721). The following applies: 1 µM; binder.
Assay [17] deals with LRRK2 (Homo sapiens, UniProt Q5S007). As to conditions: 1 µM; binder.
Assay [18] has as its target MARK3 (Homo sapiens, UniProt P27448). The following applies: 1 µM; binder.
Assay [19] concerns the target PIK4CB (Homo sapiens, UniProt Q9UBF8). As to conditions: 1 µM; binder.
The target of assay [20] is RIOK2 (Homo sapiens, UniProt Q9BVS4). As to conditions: 1 µM; binder.
Sequence of RIOK2 (Q9BVS4 whole entry): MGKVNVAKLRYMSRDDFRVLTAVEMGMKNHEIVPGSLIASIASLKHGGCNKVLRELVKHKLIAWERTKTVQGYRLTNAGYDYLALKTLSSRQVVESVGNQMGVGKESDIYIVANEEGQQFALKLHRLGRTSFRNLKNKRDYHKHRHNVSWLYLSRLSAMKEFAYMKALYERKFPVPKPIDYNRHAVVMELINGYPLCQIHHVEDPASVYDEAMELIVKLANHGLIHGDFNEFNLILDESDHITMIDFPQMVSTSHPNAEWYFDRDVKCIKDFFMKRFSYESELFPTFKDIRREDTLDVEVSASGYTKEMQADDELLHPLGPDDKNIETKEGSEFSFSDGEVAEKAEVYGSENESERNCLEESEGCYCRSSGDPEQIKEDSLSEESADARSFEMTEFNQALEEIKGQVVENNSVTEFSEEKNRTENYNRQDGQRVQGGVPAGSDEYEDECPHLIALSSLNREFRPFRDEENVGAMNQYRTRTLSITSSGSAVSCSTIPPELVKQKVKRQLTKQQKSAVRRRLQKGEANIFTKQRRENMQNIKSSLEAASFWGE

The structures appear in SMILES notation. Read-outs that look alike come from different tables or passages of the source.

Sequence of AKT1 (P31749 whole entry): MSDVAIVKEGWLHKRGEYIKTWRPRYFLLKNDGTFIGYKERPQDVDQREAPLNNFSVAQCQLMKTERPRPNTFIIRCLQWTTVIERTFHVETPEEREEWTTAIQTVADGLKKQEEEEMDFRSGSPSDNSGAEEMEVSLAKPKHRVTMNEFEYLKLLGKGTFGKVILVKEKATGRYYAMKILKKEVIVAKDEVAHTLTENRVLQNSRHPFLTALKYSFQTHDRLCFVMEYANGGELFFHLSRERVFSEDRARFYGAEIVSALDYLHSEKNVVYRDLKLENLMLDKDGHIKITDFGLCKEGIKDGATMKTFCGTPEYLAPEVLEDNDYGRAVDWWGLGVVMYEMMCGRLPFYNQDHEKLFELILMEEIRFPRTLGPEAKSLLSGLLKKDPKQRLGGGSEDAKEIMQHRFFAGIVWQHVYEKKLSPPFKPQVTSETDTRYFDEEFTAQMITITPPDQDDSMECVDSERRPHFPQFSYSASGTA
Sequence of MARK3 (P27448 whole entry): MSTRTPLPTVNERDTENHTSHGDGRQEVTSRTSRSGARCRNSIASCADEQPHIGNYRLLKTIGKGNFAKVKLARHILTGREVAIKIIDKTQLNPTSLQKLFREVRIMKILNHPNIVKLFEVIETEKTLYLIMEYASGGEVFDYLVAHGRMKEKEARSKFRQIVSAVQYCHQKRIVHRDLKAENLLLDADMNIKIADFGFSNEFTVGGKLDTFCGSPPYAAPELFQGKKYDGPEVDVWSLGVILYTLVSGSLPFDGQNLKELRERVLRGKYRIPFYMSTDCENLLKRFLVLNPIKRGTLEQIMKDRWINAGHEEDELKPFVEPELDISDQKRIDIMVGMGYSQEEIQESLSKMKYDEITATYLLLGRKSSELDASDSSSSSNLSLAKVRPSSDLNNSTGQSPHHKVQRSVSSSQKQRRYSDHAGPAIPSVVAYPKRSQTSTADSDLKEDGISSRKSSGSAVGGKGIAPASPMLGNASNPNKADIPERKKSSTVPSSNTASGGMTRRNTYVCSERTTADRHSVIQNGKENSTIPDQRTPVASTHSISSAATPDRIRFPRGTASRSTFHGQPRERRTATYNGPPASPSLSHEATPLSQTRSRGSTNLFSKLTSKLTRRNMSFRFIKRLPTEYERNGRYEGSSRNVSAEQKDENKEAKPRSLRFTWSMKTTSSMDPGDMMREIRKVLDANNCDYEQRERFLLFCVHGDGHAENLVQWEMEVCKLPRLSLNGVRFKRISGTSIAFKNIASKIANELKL
Sequence of BTK (Q06187 whole entry): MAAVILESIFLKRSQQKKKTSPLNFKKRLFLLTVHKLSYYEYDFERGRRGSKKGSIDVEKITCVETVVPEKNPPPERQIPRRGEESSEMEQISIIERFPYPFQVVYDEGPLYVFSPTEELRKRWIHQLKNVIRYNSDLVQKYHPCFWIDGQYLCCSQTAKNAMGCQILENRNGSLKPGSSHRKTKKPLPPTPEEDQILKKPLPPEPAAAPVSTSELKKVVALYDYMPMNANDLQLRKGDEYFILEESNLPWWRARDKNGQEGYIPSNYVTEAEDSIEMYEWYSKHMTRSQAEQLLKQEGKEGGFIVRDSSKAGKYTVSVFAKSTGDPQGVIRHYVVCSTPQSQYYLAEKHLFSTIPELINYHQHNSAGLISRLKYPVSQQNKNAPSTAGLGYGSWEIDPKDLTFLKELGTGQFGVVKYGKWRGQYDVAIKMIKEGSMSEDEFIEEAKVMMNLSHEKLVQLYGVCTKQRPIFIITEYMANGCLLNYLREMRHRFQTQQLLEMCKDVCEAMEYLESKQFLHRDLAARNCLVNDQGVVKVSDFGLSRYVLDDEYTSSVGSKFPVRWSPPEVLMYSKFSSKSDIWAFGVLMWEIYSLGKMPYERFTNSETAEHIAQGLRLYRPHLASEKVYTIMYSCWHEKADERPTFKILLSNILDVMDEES
Sequence of RSK1(Kin.Dom.1-N-terminal) (Q15418 whole entry): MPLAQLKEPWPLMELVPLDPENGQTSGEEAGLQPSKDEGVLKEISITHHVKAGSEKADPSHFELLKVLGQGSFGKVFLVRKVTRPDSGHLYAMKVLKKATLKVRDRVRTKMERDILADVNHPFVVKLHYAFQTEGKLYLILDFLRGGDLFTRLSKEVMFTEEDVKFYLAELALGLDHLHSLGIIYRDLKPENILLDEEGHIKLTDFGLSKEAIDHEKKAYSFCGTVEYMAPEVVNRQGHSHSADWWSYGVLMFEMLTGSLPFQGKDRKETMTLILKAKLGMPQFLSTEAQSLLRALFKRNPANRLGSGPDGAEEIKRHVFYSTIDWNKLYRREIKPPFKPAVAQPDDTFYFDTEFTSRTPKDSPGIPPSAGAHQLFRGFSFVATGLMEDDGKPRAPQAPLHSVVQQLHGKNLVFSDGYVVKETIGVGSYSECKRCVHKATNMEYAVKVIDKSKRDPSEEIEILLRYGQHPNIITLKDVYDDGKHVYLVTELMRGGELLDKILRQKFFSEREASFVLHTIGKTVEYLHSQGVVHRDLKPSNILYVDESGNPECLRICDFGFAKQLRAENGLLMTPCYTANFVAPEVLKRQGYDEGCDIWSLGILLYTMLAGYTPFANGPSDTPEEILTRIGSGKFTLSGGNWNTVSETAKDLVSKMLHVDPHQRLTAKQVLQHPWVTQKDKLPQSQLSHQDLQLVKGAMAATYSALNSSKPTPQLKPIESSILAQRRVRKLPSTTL

Turning to `CNc1ncc2cc(-c3ccc(-c4cccc(C)n4)cc3Cl)c(=O)n(C[C@H]3OC[C@H](N)CO3)c2n1` [compound 6, G-5555], the “Percent Control” value in assay [1] is recorded as 100%; in [2] it was 94%; in assay [3], 79%; in assay [4], 85%; in [5] it was 83%; in [6] (nonphosphorylated), 75%. Besides, the “Percent Control” value in assay [6] (phosphorylated) was 100%; in [7] it was 100%; in [8], 100%; in assay [9], 43%; in assay [10], 63%; in [11], 97%. Further, the “Percent Control” value was determined as 98% in assay [12]; 100% in [13]; 100% in assay [14]; 74% in assay [15]; 100% in assay [16]; 100% in [17]. In addition, the entries for the “Percent Control” value in assay [18], in [19] and in assay [20] were 18%, 100% and 100%, respectively.
